# Reference: patent US20230108906A1, “SUBSTITUTED BICYCLIC AND TRICYCLIC UREAS AND AMIDES, ANALOGUES THEREOF, AND METHODS USING SAME” (Arbutus Biopharma Corporation, priority 2019, published 2023)
# System: HBV rcDNA in HepDE19 cells
# Assay: HepDE19 assay with bDNA quantitation of HBV rcDNA
# Assay type: cell-based, hepatitis B virus (HBV)
# Settings: Hepatitis B virus, HepDE19, 168 h, inhibition of rcDNA formation in HepDE19 cells (HepG2 derived), Tet-free medium, 7 day incubation, Quantigene 2.0 bDNA readout, top concentration 25 μM; read-out: DE-19bDNA EC50
# Protocol: HepDE19 Assay with bDNA Quantitation of HBV rcDNA:
# HepDE19 cell culture system is a HepG2 (human hepatocarcinoma) derived cell line that supports HBV DNA replication and cccDNA formation in a tetracycline (Tet)-regulated manner and produces HBV rcDNA and a detectable reporter molecule dependent on the production and maintenance of cccDNA (Guo, et al., 2007, J. Virol. 81:12472-12484).
# HepDE19 (50,000 cells/well) were plated in 96-well collagen-coated tissue-culture treated microtiter plates in DMEM/F12 medium supplemented with 10% fetal bovine serum, 1% penicillin-streptomycin and 1 μg/mL tetracycline and incubated in a humidified incubator at 37° C. and 5% CO2 overnight. Next day, the cells were switched to fresh medium without tetracycline and incubated for 4 hours at 37° C. and 5% CO2. The cells were treated with fresh Tet-free medium with compounds at concentrations starting at 25 μM and a serial, […], 8-point, titration series in duplicate. The final DMSO concentration in the assay was 0.5%. The plates were incubated for 7 days in a humidified incubator at 37° C. and 5% CO2. Following a 7 day-incubation, the level of rcDNA present in the inhibitor-treated wells was measured using a Quantigene 2.0 bDNA assay kit (Affymetrix, Santa Clara, Calif.) with HBV specific custom probe set and manufacturers instructions. Concurrently, the effect of compounds on cell viability was assessed using replicate plates, plated at a density of 5,000 cells/well and incubated for 4 days, to determine the ATP content as a measure of cell viability using the cell-titer glo reagent (CTG; Promega Corporation, Madison, Wis.) as per manufacturer's instructions. The plates were read using a Victor luminescence plate reader (PerkinElmer Model 1420 Multilabel counter) and the relative luminescence units (RLU) data generated from each well was calculated as % inhibition of the untreated control wells and analyzed using XL-Fit module in Microsoft Excel to determine EC50 and EC90 (bDNA) and CC50 (CTG) values using a 4-parameter curve fitting algorithm.
# Representative compounds of the disclosure were tested for their abilities to inhibit formation of relaxed circular DNA (rcDNA) in a HepDE19 assay, as described elsewhere herein.
row,SMILES,EC50 [µM]
1,"CN(C(=O)N1Cc2ccccc2C1)[C@@H]1COCc2[nH]c(=O)c3cc(F)c(F)cc3c21 [Compound 218, (S)—N-(8,9-Difluoro-6-oxo-1,4,5,6-tetrahydro-2H-pyrano[3,4-c]isoquinolin-1-yl)-N-methylisoindoline-2-carboxamide]",1.2
2,"CN(C(=O)N1Cc2ccc(F)cc2C1)[C@@H]1COCc2[nH]c(=O)c3cc(F)c(F)cc3c21 [Compound 221, (S)—N-(8,9-Difluoro-6-oxo-1,4,5,6-tetrahydro-2H-pyrano[3,4-c]isoquinolin-1-yl)-5-fluoro-N-methylisoindoline-2-carboxamide]",5.9
3,"CCN(C(=O)Nc1ccc(F)c(C)c1)C1COCc2[nH]c(=O)c3cc(Cl)ccc3c21 (stereo not drawn) [Compound 59, 1-(8-Chloro-6-oxo-1,4,5,6-tetrahydro-2H-pyrano[3,4-c]isoquinolin-1-yl)-1-ethyl-3-(4-fluoro-3-methylphenyl)urea]",0.02
4,"COc1nc2c(c3cc(F)c(F)cc13)[C@H](N(C)C(=O)Nc1ccc(F)c(Cl)c1)COC2 [Compound 244, (S)-3-(3-Chloro-4-fluorophenyl)-1-(8,9-difluoro-6-methoxy-1,4-dihydro-2H-pyrano[3,4-c]isoquinolin-1-yl)-1-methylurea]",0.08
5,"CN(C(=O)N1Cc2ccc(Cl)cc2C1)C1CNCc2[nH]c(=O)c3cc(F)c(F)cc3c21 (single isomer, unassigned) [Compound 226, 5-Chloro-N-(8,9-difluoro-6-oxo-1,2,3,4,5,6-hexahydrobenzo[c][1,7]naphthyridin-1-yl)-N-methylisoindoline-2-carboxamide]",21
6,"CC(C)CN(C(=O)Nc1ccc(F)c(Cl)c1)C1COCc2[nH]c(=O)c3cc(F)ccc3c21 (stereo not drawn) [Compound 43, 3-(3-Chloro-4-fluorophenyl)-1-(8-fluoro-6-oxo-1,4,5,6-tetrahydro-2H-pyrano[3,4-c]isoquinolin-1-yl)-1-isobutylurea]",0.01
7,"CN(C(=O)Nc1ccc(F)c(Cl)c1)C1CS(=O)(=O)Cc2[nH]c(=O)c3cc(F)c(F)cc3c21 (single isomer, unassigned) [Compound 203, 3-(3-Chloro-4-fluorophenyl)-1-(8,9-difluoro-3,3-dioxido-6-oxo-1,4,5,6-tetrahydro-2H-thiopyrano[3,4-c]isoquinolin-1-yl)-1-methylurea]",1.4
8,"CN(C(=O)Nc1ccc(F)c(Cl)c1)C1C[S+]([O-])Cc2[nH]c(=O)c3cc(F)ccc3c21 (stereo not drawn) [Compound 193, 3-(3-Chloro-4-fluorophenyl)-1-(8-fluoro-3-oxido-6-oxo-1,4,5,6-tetrahydro-2H-thiopyrano[3,4-c]isoquinolin-1-yl)-1-methylurea]",4.4
9,"CC(C)CN(C(=O)Nc1ccc(F)c(Cl)c1)C1CCc2[nH]c(=O)cc(C(F)(F)F)c21 (stereo not drawn) [Compound 4, 3-(3-Chloro-4-fluorophenyl)-1-isobutyl-1-(2-oxo-4-(trifluoromethyl)-2,5,6,7-tetrahydro-1H-cyclopenta[b]pyridin-5-yl)urea]",0.91
10,"O=C(Nc1ccc(F)c(Cl)c1)N(CCCO)C1CCCc2[nH]c(=O)c3cc(F)ccc3c21 (stereo not drawn) [Compound 11, 3-(3-Chloro-4-fluorophenyl)-1-(8-fluoro-6-oxo-1,2,3,4,5,6-hexahydrophenanthridin-1-yl)-1-(3-hydroxypropyl)urea]",0.06
11,"CN(C(=O)Nc1ccc(F)c(Cl)c1)C1CCCc2[nH]c(=O)c3cc(F)cc(F)c3c21 (stereo not drawn) [Compound 20, 3-(3-Chloro-4-fluorophenyl)-1-(8,10-difluoro-6-oxo-1,2,3,4,5,6-hexahydrophenanthridin-1-yl)-1-methylurea]",0.51
12,"O=C(Nc1ccc(F)c(Cl)c1)N(CCCO)C1CCCCc2[nH]c(=O)c3ccccc3c21 (stereo not drawn) [Compound 22, 3-(3-Chloro-4-fluorophenyl)-1-(3-hydroxypropyl)-1-(5-oxo-6,7,8,9,10,11-hexahydro-5H-cyclohepta[c]isoquinolin-11-yl)urea]",0.6

# Same assay, conditions: inhibition of rcDNA formation in HepDE19 cells (HepG2 derived), Tet-free medium, 7 day incubation, Quantigene 2.0 bDNA readout, top concentration 25 μM; read-out: DE-19bDNA EC50
row,SMILES,EC50 [µM]
1,"CN(C(=O)Nc1ccc(F)c(F)c1)C1COCc2[nH]c(=O)c3cc(F)c(F)cc3c21 (single isomer, unassigned) [Compound 117, 1-(8,9-Difluoro-6-oxo-1,4,5,6-tetrahydro-2H-pyrano[3,4-c]isoquinolin-1-yl)-3-(3,4-difluorophenyl)-1-methylurea]",2.7
2,"CN(C(=O)Nc1ccc(F)c(Cl)c1)C1C[S+]([O-])Cc2[nH]c(=O)c3cc(F)c(F)cc3c21 (single isomer, unassigned) [Compound 210, 3-(3-Chloro-4-fluorophenyl)-1-(8,9-difluoro-3-oxido-6-oxo-1,4,5,6-tetrahydro-2H-thiopyrano[3,4-c]isoquinolin-1-yl)-1-methylurea]",7.1
3,"CN(C(=O)Nc1ccc(F)c(Cl)c1)C1CN(CCO)Cc2[nH]c(=O)c3cc(F)ccc3c21 (single isomer, unassigned) [Compound 170, 3-(3-Chloro-4-fluorophenyl)-1-(8-fluoro-3-(2-hydroxyethyl)-6-oxo-1,2,3,4,5,6-hexahydrobenzo[c][1,7]naphthyridin-1-yl)-1-methylurea]",3.1
4,"CN1Cc2[nH]c(=O)c3cc(F)c(F)cc3c2C(N(C)C(=O)Nc2ccc(F)c(Cl)c2)C1 (single isomer, unassigned) [Compound 167, 3-(3-Chloro-4-fluorophenyl)-1-(8,9-difluoro-3-methyl-6-oxo-1,2,3,4,5,6-hexahydrobenzo[c][1,7]naphthyridin-1-yl)-1-methylurea]",7.6
5,"CN(C(=O)N1Cc2ccccc2C1)C1CNCc2[nH]c(=O)c3cc(F)c(F)cc3c21 (single isomer, unassigned) [Compound 222, N-(8,9-Difluoro-6-oxo-1,2,3,4,5,6-hexahydrobenzo[c][1,7]naphthyridin-1-yl)-N-methylisoindoline-2-carboxamide]",≥ 25
6,"CN1Cc2[nH]c(=O)c3cc(F)ccc3c2C(N(C)C(=O)Nc2ccc(F)c(C#N)c2)C1 (single isomer, unassigned) [Compound 164, 3-(3-Cyano-4-fluorophenyl)-1-(8-fluoro-3-methyl-6-oxo-1,2,3,4,5,6-hexahydrobenzo[c][1,7]naphthyridin-1-yl)-1-methylurea]",1.3
7,"CNc1nc2c(c3cc(F)c(F)cc13)C(N(C)C(=O)Nc1ccc(F)c(Cl)c1)COC2 (single isomer, unassigned) [Compound 242, 3-(3-Chloro-4-fluorophenyl)-1-(8,9-difluoro-6-(methylamino)-1,4-dihydro-2H-pyrano[3,4-c]isoquinolin-1-yl)-1-methylurea]",0.02
8,"CC(C)CN(C(=O)Nc1ccc(F)c(C#N)c1)C1COCc2[nH]c(=O)c3cc(F)c(F)cc3c21 (single isomer, unassigned) [Compound 121, 3-(3-Cyano-4-fluorophenyl)-1-(8,9-difluoro-6-oxo-1,4,5,6-tetrahydro-2H-pyrano[3,4-c]isoquinolin-1-yl)-1-isobutylurea]",0.01
9,"CC(=O)N1Cc2[nH]c(=O)c3cc(F)c(F)cc3c2C(N(C)C(=O)Nc2ccc(F)c(C#N)c2)C1 (single isomer, unassigned) [Compound 177, 1-(3-Acetyl-8,9-difluoro-6-oxo-1,2,3,4,5,6-hexahydrobenzo[c][1,7]naphthyridin-1-yl)-3-(3-cyano-4-fluorophenyl)-1-methylurea]",≥ 25
10,"CC(C)CN(C(=O)Nc1cc(F)c(F)c(F)c1)C1COCc2[nH]c(=O)c3cc(F)ccc3c21 (single isomer, unassigned) [Compound 114, 1-(8-Fluoro-6-oxo-2,4,5,6-tetrahydro-1H-pyrano[3,4-c]isoquinolin-1-yl)-1-isobutyl-3-(3,4,5-trifluorophenyl)urea]",0.41

# Same assay, conditions: read-out: DE-19bDNA EC50; inhibition of rcDNA formation in HepDE19 cells (HepG2 derived), Tet-free medium, 7 day incubation, Quantigene 2.0 bDNA readout, top concentration 25 μM
row,SMILES,EC50 [µM]
1,"CN(C(=O)N1Cc2ccc(C(F)(F)F)cc2C1)C1CNCc2[nH]c(=O)c3cc(F)c(F)cc3c21 (single isomer, unassigned) [Compound 232, N-(8,9-Difluoro-6-oxo-1,2,3,4,5,6-hexahydrobenzo[c][1,7]naphthyridin-1-yl)-N-methyl-5-(trifluoromethyl)isoindoline-2-carboxamide]",20
2,"CN(C(=O)Nc1ccccc1)C1COCc2[nH]c(=O)c3cc(F)c(F)cc3c21 (single isomer, unassigned) [Compound 101, 1-(8,9-Difluoro-6-oxo-1,4,5,6-tetrahydro-2H-pyrano[3,4-c]isoquinolin-1-yl)-1-methyl-3-phenylurea]",4.7
